According to US12540131B2 (Merck Sharp & Dohme LLC, priority 2019, dated 2026):

target: GST tagged truncated human mutant G2019S LRRK2 (Homo sapiens (Human), UniProt Q5S007, G2019S); assay: LRRK2 Km ATP LanthaScreen Assay; format: biochemical; conditions: G2019S LRRK2, 134 μM ATP (Km ATP), mean values
Outline: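 Enzyme (GST-tagged, truncated) was preincubated with compound for 15 min at RT in 50 mM Tris pH 8.5, 10 mM MgCl2, 0.01% Brij-35, 1 mM EGTA, 2 mM DTT and 0.05 mM orthovanadate. Fluorescein-LRRKtide and 134 μM ATP (Km) were then added for 90 min. EDTA and Tb-anti-pERM antibody stopped the reaction; the TR-FRET 520/495 ratio gave 4-parameter IC50s, reported as mean pIC50.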

Chain of GST tagged truncated human mutant G2019S LRRK2 (Q5S007 970-2527 G2019S): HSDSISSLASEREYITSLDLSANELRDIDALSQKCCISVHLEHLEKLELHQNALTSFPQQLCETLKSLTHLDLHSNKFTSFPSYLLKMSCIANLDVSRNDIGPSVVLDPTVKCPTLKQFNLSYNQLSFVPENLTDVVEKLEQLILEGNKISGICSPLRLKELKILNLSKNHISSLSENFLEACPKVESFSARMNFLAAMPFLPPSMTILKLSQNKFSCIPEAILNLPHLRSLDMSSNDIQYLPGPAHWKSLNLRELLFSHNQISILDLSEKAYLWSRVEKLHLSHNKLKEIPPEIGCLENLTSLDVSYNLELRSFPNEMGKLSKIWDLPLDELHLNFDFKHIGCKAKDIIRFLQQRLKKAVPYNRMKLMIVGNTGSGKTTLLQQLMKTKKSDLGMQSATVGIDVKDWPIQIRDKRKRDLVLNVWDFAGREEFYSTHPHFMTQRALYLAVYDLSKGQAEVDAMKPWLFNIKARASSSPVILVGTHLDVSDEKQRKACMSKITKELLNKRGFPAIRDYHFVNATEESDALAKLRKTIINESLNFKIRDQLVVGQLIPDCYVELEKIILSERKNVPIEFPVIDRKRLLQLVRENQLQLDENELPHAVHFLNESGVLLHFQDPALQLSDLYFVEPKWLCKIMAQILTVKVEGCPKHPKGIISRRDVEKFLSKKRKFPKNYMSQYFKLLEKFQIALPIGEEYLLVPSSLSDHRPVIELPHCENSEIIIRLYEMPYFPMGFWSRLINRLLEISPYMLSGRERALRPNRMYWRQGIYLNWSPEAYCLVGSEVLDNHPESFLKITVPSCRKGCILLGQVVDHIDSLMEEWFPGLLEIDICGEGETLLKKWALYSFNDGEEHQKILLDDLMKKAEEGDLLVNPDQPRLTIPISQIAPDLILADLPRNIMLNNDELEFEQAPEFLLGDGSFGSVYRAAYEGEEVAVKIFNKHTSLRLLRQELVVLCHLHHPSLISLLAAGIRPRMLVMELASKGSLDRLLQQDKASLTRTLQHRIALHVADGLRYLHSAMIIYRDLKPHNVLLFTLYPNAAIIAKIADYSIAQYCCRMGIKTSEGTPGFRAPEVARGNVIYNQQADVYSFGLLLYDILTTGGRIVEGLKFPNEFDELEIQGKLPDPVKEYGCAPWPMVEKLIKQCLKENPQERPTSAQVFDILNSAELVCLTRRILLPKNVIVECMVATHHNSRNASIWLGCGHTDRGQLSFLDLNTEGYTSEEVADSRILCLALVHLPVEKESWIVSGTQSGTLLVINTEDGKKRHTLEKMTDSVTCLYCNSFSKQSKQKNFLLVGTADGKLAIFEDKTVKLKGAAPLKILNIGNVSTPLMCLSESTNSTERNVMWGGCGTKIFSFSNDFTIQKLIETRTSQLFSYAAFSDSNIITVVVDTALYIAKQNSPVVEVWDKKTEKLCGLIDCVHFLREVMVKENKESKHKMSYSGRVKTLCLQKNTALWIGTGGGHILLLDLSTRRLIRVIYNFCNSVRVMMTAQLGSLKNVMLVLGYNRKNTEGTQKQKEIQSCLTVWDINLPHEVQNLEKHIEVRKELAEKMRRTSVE

SMILES | LRRK2 pIC50
Cc1cc2cnc(Nc3cnn(C4CC4(F)F)c3C)nc2cc1[C@@H]1CCN([C@H]2COC[C@H]2O)C[C@H]1F (single isomer, unassigned) [Ex-4.143, (R)(3S,4S)(3S,4S) or (R)(3S,4S)(3R,4R) or (R)(3R,4R)(3S,4S) or (R)(3R,4R)(3R,4R) or (S)(3S,4S)(3S,4S) or (S)(3S,4S)(3R,4R) or (S)(3R,4R)(3S,4S) or (S)(3R,4R)(3R,4R) 4-[4-(2-{[1-(2,2-difluorocyclopropyl)-5-methyl-1H-pyrazol-4-yl]amino}-6-methylquinazolin-7-yl)-3-fluoropiperidin-1-yl]oxolan-3-ol] | >9.20
N#CC1CCC(N2CC[C@@H](c3cc4nc(Nc5cnn(C6CC6)c5Cl)ncc4cc3Cl)[C@H](F)C2)C1 (single isomer, unassigned) [Ex-4.110, (1R,3S)-3-((3S,4S) or (1S,3R)-3-((3S,4S) or (1R,3R)-3-((3S,4S) or (1S,3S)-3-((3S,4S) or (1R,3S)-3-((3R,4R) or (1S,3R)-3-((3R,4R) or (1R,3R)-3-((3R,4R) or 1S,3S)-3-((3R,4R) 4-(6-chloro-2-((5-chloro-1-cyclopropyl-1H-pyrazol-4-yl)amino)quinazolin-7-yl)-3-fluoropiperidin-1-yl)cyclopentane-1-carbonitrile] | 8.73
Cc1cc2cnc(Nc3cnn(C)c3Cl)nc2cc1[C@@H]1CCN([C@H]2COC[C@H]2O)C[C@H]1F (single isomer, unassigned) [Ex-4.260, (3S,4S)(3S,4S) or (3S,4S)(3R,4R) or (3R,4R)(3S,4S) or (3R,4R)(3R,4R) 4-(4-(2-((5-chloro-1-methyl-1H-pyrazol-4-yl)amino)-6-methylquinazolin-7-yl)-3-fluoropiperidin-1-yl)tetrahydrofuran-3-ol] | 8.00
N#CC1COCC1N1CCC(c2cc3nc(Nc4cnn(C5CC5)c4Cl)ncc3cc2Cl)CC1 (single isomer, unassigned) [Ex-4.103, (3S,4S) or (3R,4R) or (3S,4R) or (3R,4S) 4-(4-(6-chloro-2-((5-chloro-1-cyclopropyl-1H-pyrazol-4-yl)amino)quinazolin-7-yl)piperidin-1-yl)tetrahydrofuran-3-carbonitrile] | 8.49
F[C@@H]1CN(C2COC2)CC[C@H]1c1cc2nc(Nc3cnn(C4CC4(F)F)c3Cl)ncc2cc1Cl (single isomer, unassigned) [Ex-8.29, (R)(3S,4S) or (S)(3S,4S) or (R)(3R,4R) or (S)(3R,4R) 6-chloro-N-[5-chloro-1-(2,2-difluorocyclopropyl)-1H-pyrazol-4-yl]-7-[3-fluoro-1-(oxetan-3-yl)piperidin-4-yl]quinazolin-2-amine] | 8.88
Cn1ncc(Nc2ncc3cc(Cl)c(C4CCN([C@]5(C)COC[C@@H]5O)CC4)cc3n2)c1C(F)F (single isomer, unassigned) [Ex-2.82, (3S,4S) or (3R,4R) 4-[4-(6-chloro-2-{[5-(difluoromethyl)-1-methyl-1H-pyrazol-4-yl]amino}quinazolin-7-yl)piperidin-1-yl]-4-methyloxolan-3-ol] | >9.20
Cc1c(Nc2ncc3cc(Cl)c(C4CCN(C[C@@H](O)c5cc(F)cc(F)c5)CC4)cc3n2)cnn1C1CC1 [Ex-4.197, (1S)-2-(4-{6-chloro-2-[(1-cyclopropyl-5-methyl-1H-pyrazol-4-yl)amino]quinazolin-7-yl}piperidin-1-yl)-1-(3,5-difluorophenyl)ethan-1-ol] | 8.76
Cc1c(Nc2ncc3cc(Cl)c([C@@H]4CCN([C@H]5COC[C@H]5O)C[C@H]4F)cc3n2)cnn1C (single isomer, unassigned) [Ex-4.256, (3S,4S)(3S,4S) or (3S,4S)(3R,4R) or (3R,4R)(3S,4S) or (3R,4R)(3R,4R) 4-(4-(6-chloro-2-((1,5-dimethyl-1H-pyrazol-4-yl)amino)quinazolin-7-yl)-3-fluoropiperidin-1-yl)tetrahydrofuran-3-ol] | >9.20
O[C@@H]1COCC1N1CC[C@@H](c2cc3nc(Nc4cnn(C5CC5)c4Cl)ncc3cc2Cl)[C@H](F)C1 (single isomer, unassigned) [Ex-4.123, (3S,4S)(3S,4S) or (3S,4S)(3R,4R) or (3R,4R)(3S,4S) or (3R,4R)(3R,4R) 4-{6-chloro-2-[(5-chloro-1-cyclopropyl-1H-pyrazol-4-yl)amino]quinazolin-7-yl}-3-fluoropiperidin-1-yl]oxolan-3-ol] | 8.37
O[C@@H]1COC[C@@H]1N1CCC(c2cc3nc(Nc4cnn(C56CC(C5)C6)c4)ncc3cc2Cl)CC1 (single isomer, unassigned) [Ex-4.152, (3S,4S) or (3R,4R) 4-[4-(2-{[1-(bicyclo[1.1.1]pentan-1-yl)-1H-pyrazol-4-yl]amino}-6-chloroquinazolin-7-yl)piperidin-1-yl]oxolan-3-ol] | >9.20
Cc1cc2cnc(Nc3cnn(C45CC(C4)C5)c3C)nc2cc1C1CCN(C2(C)COC2)CC1 [Ex-5.8, N-[1-(bicyclo[1.1.1]pentan-1-yl)-5-methyl-1H-pyrazol-4-yl]-6-methyl-7-[1-(3-methyloxetan-3-yl)piperidin-4-yl]quinazolin-2-amine] | >9.20
COC(C)(C)Cn1cc(Nc2ncc3cc(Cl)c(C4CCN(C5COC5)CC4)cc3n2)c(C)n1 [Ex-2.16, 6-chloro-N-[1-(2-methoxy-2-methylpropyl)-3-methyl-1H-pyrazol-4-yl]-7-[1-(oxetan-3-yl)piperidin-4-yl]quinazolin-2-amine] | 8.94
Cc1c(Nc2ncc3cc(Cl)c(C4CCN(C5COC[C@H]5O)[C@@H](C)C4)cc3n2)cnn1C1CC1 (single isomer, unassigned) [Ex-4.129, (3S,4S)(2S,4R) or (3S,4S)(2S,4S) or (3R,4R)(2S,4R) or (3R,4R)(2S,4S) (3 4-[4-{6-chloro-2-[(1-cyclopropyl-5-methyl-1H-pyrazol-4-yl)amino]quinazolin-7-yl}-2-methylpiperidin-1-yl]oxolan-3-ol] | >9.20
Cc1c(Nc2ncc3cc(Cl)c(C4CCN(C[C@@H](O)c5ccc(F)cc5)CC4)cc3n2)cnn1C1CC1 [Ex-4.214, (1S)-2-(4-{6-chloro-2-[(1-cyclopropyl-5-methyl-1H-pyrazol-4-yl)amino]quinazolin-7-yl}piperidin-1-yl)-1-(4-fluorophenyl)ethan-1-ol] | 8.62
Cc1c(Nc2ncc3cc(Cl)c(C4CCN(C5CCC(CC#N)C5)CC4)cc3n2)cnn1C1CC1 (single isomer, unassigned) [Ex-4.170, (1R,3R) or (1S,3R) or (1R,3S) or (1S,3S) [3-(4-{6-chloro-2-[(1-cyclopropyl-5-methyl-1H-pyrazol-4-yl)amino]quinazolin-7-yl}piperidin-1-yl)cyclopentyl]acetonitrile] | 8.81
Cc1c(Nc2ncc3cc(Cl)c([C@@H]4CCN([C@@H]5COC[C@@H]5O)C[C@H]4F)cc3n2)cnn1C12CC(C1)C2 (single isomer, unassigned) [Ex-4.161, (3S,4S)(3S,4S) or (3S,4S)(3R,4R) or (3R,4R)(3S,4S) or (3R,4R)(3R,4R) 4-[4-(2-{[1-(bicyclo[1.1.1]pentan-1-yl)-5-methyl-1H-pyrazol-4-yl]amino}-6-chloroquinazolin-7-yl)-3-fluoropiperidin-1-yl]oxolan-3-ol] | 8.92
Cc1c(Nc2ncc3cc(Cl)c(C4CCN(CC(C)(C)O)CC4)cc3n2)cnn1C1CC1 [Ex-4.217, 1-(4-{6-chloro-2-[(1-cyclopropyl-5-methyl-1H-pyrazol-4-yl)amino]quinazolin-7-yl}piperidin-1-yl)-2-methylpropan-2-ol] | 8.57
Cc1c(Nc2ncc3cc(Cl)c(C4CCN(C5CC[C@@H]6C[C@H]56)CC4)cc3n2)cnn1C1CC1 (stereo partly drawn) [Ex-4.172, 7-{1-[(1S,5R)-bicyclo[3.1.0]hexan-2-yl]piperidin-4-yl}-6-chloro-N-(1-cyclopropyl-5-methyl-1H-pyrazol-4-yl)quinazolin-2-amine] | 7.53
Cc1c(Nc2ncc3cc(Cl)c(C4CCN(C5COCC5F)CC4)cc3n2)cnn1C1CC1 (single isomer, unassigned) [Ex-7.4, (3S,4S) or (3R,4R) or (3S,4R) or (3R,4S) 6-chloro-N-(1-cyclopropyl-5-methyl-1H-pyrazol-4-yl)-7-[1-(4-fluorooxolan-3-yl)piperidin-4-yl]quinazolin-2-amine] | >9.20
CN1CC[C@H](c2cc3nc(Nc4cnn(C5CC5)c4Cl)ncc3cc2Cl)[C@@H](F)C1 (single isomer, unassigned) [Ex-4.40, (3S,4S) or (3R,4R) 6-chloro-N-(5-chloro-1-cyclopropyl-1H-pyrazol-4-yl)-7-(3-fluoro-1-methylpiperidin-4-yl)quinazolin-2-amine] | >9.20
CN1CCC(c2cc3nc(Nc4cnn(C(C)(C)CO)c4Cl)ncc3cc2Cl)CC1 [Ex-8.11, 2-(5-chloro-4-{[6-chloro-7-(1-methylpiperidin-4-yl)quinazolin-2-yl]amino}-1H-pyrazol-1-yl)-2-methylpropan-1-ol] | 8.91

same assay, conditions: G2019S LRRK2, 134 μM ATP (Km ATP), mean values; read-out: LRRK2 pIC50 (converted)

SMILES | IC50
Cc1c(Nc2ncc3cc(Cl)c(C4CCN(CC(O)CN5CCOCC5)CC4)cc3n2)cnn1C1CC1 (single isomer, unassigned) [Ex-4.227, (S) or (R) 1-(4-{6-chloro-2-[(1-cyclopropyl-5-methyl-1H-pyrazol-4-yl)amino]quinazolin-7-yl}piperidin-1-yl)-3-(morpholin-4-yl)propan-2-ol] | < 0.631 nM
